We go through 18 molecules from patent US11547697B2, “Heterocyclic compounds and uses thereof” (MILLENNIUM PHARMACEUTICALS, INC., priority 2009, dated 2023).

Data set [1] relates to lupus disease model mice (R2KO, BXSB or MLR/lpr). The settings on record: B6.Sle1z.Sle3z model (T. Wu et al.); cited from earlier work.
Data set [2] addresses p110β/p85α (Homo sapiens (Human), UniProt P42338). The data set is described as follows: PI 3-Kinase (human) HTRF assay, p110β/p85α. The settings on record: read-out: PI3K β IC50. It counts as biochemical.
Data set [3] has as its target recombinant mTOR (Homo sapiens (Human), UniProt P42345). The data set is described as follows: mTOR inhibition assay (radiometric or LanthaScreen TR-FRET). The data set is classed as biochemical. The settings on record: read-out: MTORC IC50.
Description: The compounds described herein can be tested against recombinant mTOR (Invitrogen) in an assay containing 50 mM HEPES, pH 7.5, 1 mM EGTA, 10 mM MgCl2, 2.5 mM, 0.01% Tween, 10 pM ATP (2.5 μCi of μ-32P-ATP), and 3 μg/mL BSA. R^at recombinant PHAS-1/4EBP1 (Calbiochem; 2 mg/mL) is used as a substrate. Reactions are terminated by spotting onto nitrocellulose, which is washed with 1M NaCl/1% phosphoric acid (approximately 6 times, 5-10 minutes each). Sheets are dried and the transferred radioactivity quantitated by phosphorimaging.
For instance, one can use Invitrogen's LanthaScreen™ Kinase assay to test the inhibitors of mTOR disclosed herein. This assay is a time resolved FRET platform that measures the phosphorylation of GFP labeled 4EBP1 by mTOR kinase. The kinase reaction is performed in a white 384 well microtitre plate. The total reaction volume is 20 ul per well and the reaction buffer composition is 50 mM HEPES pH7.5, 0.01% Polysorbate 20, 1 mM EGTA, 10 mM MnCl2, and 2 mM DTT. In the first step, each well receives 2 ul of test compound in 20% dimethylsulphoxide resulting in a 2% DMSO final concentration. Next, 8 ul of mTOR diluted in reaction buffer is added per well for a 60 ng/ml final concentration. To start the reaction, 10 ul of an ATP/GFP-4EBP1 mixture (diluted in reaction buffer) is added per well for a final concentration of 10 μM ATP and 0.5 μM GFP-4EBP1. The plate is sealed and incubated for 1 hour at room temperature. […] The plate is sealed, incubated for 1 hour at room temperature, and then read on a plate reader set up for LanthaScreen™ TR-FRET. Data is analyzed and IC50s are generated using GraphPad Prism 5.
Data set [4] addresses p110γ (Homo sapiens (Human), UniProt P48736). Put plainly: PI 3-Kinase (human) HTRF assay, p110γ. It counts as biochemical. The settings on record: read-out: PI3K γ IC50.
Data set [5] concerns the target p110α/p85α (Homo sapiens (Human), UniProt P42336). The data set is described as follows: PI 3-Kinase (human) HTRF assay, p110α/p85α. It counts as biochemical. The settings on record: read-out: PI3K α IC50.
Data set [6] deals with tumor cells with a PI3Kα mutation (e.g., MDA-MB-361 and T47D). The data set is described as follows: Proliferation of tumor cells with PI3Kα mutation. The data set is classed as cell-based. The settings on record: Homo sapiens, T47D cells.
Data set [7] deals with p110δ/p85α (Homo sapiens (Human), UniProt O00329). The data set is described as follows: PI 3-Kinase (human) HTRF assay, p110δ/p85α. The data set is classed as biochemical. The settings on record: read-out: PI3K δ IC50.
p110δ/p85α, sequence (O00329 whole entry): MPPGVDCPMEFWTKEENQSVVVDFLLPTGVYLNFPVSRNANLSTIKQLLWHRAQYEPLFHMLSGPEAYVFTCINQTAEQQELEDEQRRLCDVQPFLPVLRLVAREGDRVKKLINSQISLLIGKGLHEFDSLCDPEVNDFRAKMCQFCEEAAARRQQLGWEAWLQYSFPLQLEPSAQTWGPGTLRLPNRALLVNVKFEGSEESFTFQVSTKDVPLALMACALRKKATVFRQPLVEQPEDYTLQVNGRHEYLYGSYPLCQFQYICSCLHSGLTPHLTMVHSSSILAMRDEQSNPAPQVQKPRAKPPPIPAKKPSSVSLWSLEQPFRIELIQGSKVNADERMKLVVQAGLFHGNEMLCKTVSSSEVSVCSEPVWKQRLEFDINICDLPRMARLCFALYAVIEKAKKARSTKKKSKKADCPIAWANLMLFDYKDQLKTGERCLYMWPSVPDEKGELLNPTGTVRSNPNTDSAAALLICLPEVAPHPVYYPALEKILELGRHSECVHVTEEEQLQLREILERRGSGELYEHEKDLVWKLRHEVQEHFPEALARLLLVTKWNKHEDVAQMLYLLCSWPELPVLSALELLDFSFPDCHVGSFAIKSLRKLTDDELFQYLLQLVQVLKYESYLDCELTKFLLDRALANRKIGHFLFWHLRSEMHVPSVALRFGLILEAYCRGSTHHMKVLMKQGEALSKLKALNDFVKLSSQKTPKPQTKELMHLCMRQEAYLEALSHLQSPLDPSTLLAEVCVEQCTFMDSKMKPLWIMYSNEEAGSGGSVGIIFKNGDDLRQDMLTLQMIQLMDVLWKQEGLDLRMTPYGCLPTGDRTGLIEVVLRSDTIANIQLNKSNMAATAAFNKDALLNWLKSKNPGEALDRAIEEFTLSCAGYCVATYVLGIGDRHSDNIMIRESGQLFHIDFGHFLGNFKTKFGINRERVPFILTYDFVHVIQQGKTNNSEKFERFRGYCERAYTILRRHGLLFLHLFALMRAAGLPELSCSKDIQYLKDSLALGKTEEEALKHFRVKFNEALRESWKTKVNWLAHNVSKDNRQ
p110δ/p85α, sequence (P27986 whole entry partner): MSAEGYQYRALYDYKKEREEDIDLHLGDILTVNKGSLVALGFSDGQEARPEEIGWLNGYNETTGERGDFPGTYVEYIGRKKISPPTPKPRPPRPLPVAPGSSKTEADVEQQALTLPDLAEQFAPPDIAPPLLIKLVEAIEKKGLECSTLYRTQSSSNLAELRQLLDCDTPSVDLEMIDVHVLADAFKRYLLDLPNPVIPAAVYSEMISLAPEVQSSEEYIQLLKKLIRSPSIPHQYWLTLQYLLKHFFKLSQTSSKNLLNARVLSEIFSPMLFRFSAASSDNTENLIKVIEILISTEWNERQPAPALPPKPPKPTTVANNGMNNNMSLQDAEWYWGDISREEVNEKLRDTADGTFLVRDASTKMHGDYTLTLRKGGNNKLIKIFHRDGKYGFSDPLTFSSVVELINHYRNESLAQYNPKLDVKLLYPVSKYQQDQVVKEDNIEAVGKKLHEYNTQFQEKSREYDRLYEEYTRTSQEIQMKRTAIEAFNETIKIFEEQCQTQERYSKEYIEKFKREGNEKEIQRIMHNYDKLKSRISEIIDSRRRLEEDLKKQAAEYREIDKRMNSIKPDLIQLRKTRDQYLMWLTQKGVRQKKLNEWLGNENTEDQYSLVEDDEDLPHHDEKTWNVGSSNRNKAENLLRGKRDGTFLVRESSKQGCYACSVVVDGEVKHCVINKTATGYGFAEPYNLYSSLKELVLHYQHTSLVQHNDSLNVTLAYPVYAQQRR
Data set [8] has as its system Human tumor cell lines (e.g., MCF7, U-87 MG, MDA-MB-468, PC-3). The data set is described as follows: Tumor cell line proliferation assay (Alamar Blue). It counts as cell-based. The settings on record: PC3 cells. Here is the method:
The ability of one or more subject compounds to inhibit tumor cell line proliferation is determined according to standard procedures known in the art. For instance, an in vitro cellular proliferation assay can be performed to measure the metabolic activity of live cells. The assay is performed in a 96 well microtiter plate using Alamar Blue reduction. Human tumor cell lines are obtained from ATCC (e.g., MCF7, U-87 MG, MDA-MB-468, PC-3), grown to confluency in T75 flasks, trypsinized with 0.25% trypsin, washed one time with Tumor Cell Media (DMEM+10% FBS), and plated in 90 ul at 5,000 cells/well in Tumor Cell Media. A compound disclosed herein is diluted in Tumor Cell Media and added in a 10 ul volume. Plates are incubated for 72 hours at 37 C and 5% CO2. A volume of 10 uL of Alamar Blue reagent is added to each well and plates are incubated for 3 hours at 37 C and 5% CO2. Alamar Blue fluoresce is read at 560Ex/590Em, and IC50 values are calculated using GraphPad Prism 5.

The conditions of data set [9]: 5 μM, human plasma, 37° C.; cited from earlier work.
Data set [10] relates to HCT116 cells. Put plainly: Cell arrest assay, alone and in combination with MEK inhibitor. The settings on record: 3 μM compound 54 or 0.3 μM PD0325901, 20 hours. The data set is classed as cell-based, human. As for the experimental part:
Cells are then incubated in the presence of DMSO or inhibitor for 20 hours. The number of cells at each stage in the cell cycle is determined and expressed as a percent of the total, with an increase in the number of cells arrested at pre-GO/G1 indicating effective inhibition of cell cycle progression.

Data set [11] deals with p190 transduced leukemic cells. The settings on record: about 70 mg/kg twice daily, p190 model; cited from earlier work.
In data set [12] the test system is PI3K/Akt/mTor signaling in blood cells. Put plainly: Kinase signaling in blood (phosflow). It counts as cell-based. The settings on record: splenocytes or peripheral blood mononuclear cells, anti-CD3 stimulation. As for the experimental part:
PI3K/Akt/mTor signaling is measured in blood cells using the phosflow method (Methods Enzymol. 2007; 434:131-54). The advantage of this method is that it is by nature a single cell assay so that cellular heterogeneity can be detected rather than population averages. This allows concurrent distinction of signaling states in different populations defined by other markers. Phosflow is also highly quantitative. To test the effects of one or more compounds disclosed herein, unfractionated splenocytes, or peripheral blood mononuclear cells are stimulated with anti-CD3 to initiate T-cell receptor signaling. The cells are then fixed and stained for surface markers and intracellular phosphoproteins.
Similarly, aliquots of whole blood are incubated for 15 minutes with vehicle (e.g., 0.1% DMSO) or kinase inhibitors at various concentrations, before addition of stimuli to crosslink the T cell receptor (TCR) (anti-CD3 with secondary antibody) or the B cell receptor (BCR) using anti-kappa light chain antibody (Fab′2 fragments). After approximately 5 and 15 minutes, samples are fixed (e.g., with cold 4% paraformaldehyde) and used for phosflow. […] The level of phosphrylation of kinase substrates such as Akt and S6 are then measured by incubating the fixed cells with labeled antibodies specific to the phosphorylated isoforms of these proteins. The population of cells is then analyzed by flow cytometry.

For data set [13] the following is noted: 5 μM, PBS pH 7.4, 37° C., 24 hours; cited from earlier work.
Setting [14] is: read-out: PC3 proliferation (nM)*.
Setting [15] is: read-out: T47D proliferation IC50.
[16] abbreviates: read-out: PC3 proliferation IC50.

Read-outs that look alike come from different tables or passages of the source. A value given as a limit tells only on which side of the number the result lay.

p110β/p85α, sequence (P42338 whole entry): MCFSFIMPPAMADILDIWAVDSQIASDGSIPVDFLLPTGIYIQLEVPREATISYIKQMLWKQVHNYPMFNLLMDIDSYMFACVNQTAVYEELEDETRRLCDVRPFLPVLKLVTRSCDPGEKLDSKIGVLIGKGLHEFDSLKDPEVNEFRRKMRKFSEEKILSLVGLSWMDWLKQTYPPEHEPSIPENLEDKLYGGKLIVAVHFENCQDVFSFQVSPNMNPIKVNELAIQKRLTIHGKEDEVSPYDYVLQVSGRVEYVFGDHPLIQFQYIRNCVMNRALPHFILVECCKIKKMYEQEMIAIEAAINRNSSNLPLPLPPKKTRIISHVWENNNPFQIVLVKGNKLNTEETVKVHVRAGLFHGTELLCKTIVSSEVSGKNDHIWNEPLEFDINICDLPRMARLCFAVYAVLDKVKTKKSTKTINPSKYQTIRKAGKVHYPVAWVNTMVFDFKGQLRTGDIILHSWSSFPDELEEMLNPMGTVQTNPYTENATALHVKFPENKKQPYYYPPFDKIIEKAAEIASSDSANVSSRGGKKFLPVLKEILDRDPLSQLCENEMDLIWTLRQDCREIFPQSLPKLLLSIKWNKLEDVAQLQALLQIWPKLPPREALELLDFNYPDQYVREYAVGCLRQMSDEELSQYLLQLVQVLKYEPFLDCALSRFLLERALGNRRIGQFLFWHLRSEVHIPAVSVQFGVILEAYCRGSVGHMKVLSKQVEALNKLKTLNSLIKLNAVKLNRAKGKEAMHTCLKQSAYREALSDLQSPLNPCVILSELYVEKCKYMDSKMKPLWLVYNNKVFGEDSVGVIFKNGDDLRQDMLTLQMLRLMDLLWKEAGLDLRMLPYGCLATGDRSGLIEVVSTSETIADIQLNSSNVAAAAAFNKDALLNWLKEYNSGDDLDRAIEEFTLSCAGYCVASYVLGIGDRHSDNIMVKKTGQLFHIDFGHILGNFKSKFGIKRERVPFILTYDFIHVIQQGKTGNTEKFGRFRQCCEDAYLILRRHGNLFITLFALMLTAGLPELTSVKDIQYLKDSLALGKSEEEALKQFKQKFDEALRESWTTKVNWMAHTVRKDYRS
p110β/p85α, sequence (P27986 whole entry partner): as the sequence (P27986 whole entry partner) above
p110γ, sequence (P48736 whole entry): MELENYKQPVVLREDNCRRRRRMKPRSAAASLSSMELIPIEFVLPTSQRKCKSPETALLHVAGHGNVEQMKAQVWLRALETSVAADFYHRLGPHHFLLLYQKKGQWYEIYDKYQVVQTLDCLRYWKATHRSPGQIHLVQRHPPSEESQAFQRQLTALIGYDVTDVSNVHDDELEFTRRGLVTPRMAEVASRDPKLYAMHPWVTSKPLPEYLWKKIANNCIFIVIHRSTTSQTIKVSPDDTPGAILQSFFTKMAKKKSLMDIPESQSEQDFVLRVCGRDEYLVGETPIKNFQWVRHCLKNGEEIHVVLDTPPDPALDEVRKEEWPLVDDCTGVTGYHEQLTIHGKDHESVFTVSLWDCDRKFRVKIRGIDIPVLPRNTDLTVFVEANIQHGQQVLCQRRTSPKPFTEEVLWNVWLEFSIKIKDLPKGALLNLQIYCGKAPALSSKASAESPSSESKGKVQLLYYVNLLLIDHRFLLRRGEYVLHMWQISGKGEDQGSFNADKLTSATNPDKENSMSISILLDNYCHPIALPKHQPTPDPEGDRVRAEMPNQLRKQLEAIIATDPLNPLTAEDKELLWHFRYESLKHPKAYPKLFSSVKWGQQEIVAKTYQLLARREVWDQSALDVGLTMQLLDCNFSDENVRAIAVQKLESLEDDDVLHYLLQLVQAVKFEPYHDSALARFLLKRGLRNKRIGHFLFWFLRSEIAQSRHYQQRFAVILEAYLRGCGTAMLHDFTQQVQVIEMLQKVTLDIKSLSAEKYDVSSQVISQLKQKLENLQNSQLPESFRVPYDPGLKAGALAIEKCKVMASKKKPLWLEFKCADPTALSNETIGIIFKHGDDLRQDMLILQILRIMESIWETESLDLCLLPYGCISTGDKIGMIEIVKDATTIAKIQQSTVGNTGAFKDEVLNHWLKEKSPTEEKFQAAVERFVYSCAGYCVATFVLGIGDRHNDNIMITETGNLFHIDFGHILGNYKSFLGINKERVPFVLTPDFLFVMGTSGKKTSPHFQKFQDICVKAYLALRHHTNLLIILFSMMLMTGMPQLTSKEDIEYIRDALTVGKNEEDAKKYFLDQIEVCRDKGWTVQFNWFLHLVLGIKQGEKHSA
p110α/p85α, sequence (P42336 whole entry): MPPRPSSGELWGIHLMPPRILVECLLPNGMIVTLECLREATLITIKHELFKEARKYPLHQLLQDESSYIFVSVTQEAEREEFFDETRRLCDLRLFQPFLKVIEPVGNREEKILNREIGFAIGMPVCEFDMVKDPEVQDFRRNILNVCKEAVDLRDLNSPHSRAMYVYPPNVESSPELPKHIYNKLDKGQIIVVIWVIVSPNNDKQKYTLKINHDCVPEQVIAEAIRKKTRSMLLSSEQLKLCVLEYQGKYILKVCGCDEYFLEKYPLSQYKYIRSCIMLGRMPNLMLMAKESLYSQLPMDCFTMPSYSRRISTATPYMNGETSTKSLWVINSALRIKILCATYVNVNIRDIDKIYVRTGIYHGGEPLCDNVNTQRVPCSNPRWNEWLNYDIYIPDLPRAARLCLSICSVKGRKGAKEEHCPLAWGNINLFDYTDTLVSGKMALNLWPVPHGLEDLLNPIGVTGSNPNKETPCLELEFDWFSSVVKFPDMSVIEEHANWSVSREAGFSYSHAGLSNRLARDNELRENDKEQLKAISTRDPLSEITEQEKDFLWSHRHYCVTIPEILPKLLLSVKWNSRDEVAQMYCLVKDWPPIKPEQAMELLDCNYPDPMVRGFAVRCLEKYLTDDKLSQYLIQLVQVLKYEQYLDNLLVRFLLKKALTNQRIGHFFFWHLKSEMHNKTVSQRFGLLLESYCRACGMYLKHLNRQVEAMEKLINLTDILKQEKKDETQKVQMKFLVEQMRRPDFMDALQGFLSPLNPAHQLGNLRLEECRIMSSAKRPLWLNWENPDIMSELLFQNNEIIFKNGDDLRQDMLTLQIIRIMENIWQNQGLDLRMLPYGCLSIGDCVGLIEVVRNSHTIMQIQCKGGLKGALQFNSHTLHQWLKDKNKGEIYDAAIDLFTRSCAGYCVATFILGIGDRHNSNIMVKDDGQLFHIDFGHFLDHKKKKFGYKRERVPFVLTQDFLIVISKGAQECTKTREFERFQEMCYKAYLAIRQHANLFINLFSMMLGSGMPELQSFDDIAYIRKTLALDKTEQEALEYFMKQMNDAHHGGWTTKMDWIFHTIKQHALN
p110α/p85α, sequence (P27986 whole entry partner): as the sequence (P27986 whole entry partner) above

With `CO[C@H]1C[C@@H]2CC[C@@H](C)[C@@](O)(O2)C(=O)C(=O)N2CCCC[C@H]2C(=O)O[C@H]([C@H](C)C[C@@H]2CC[C@@H](OCCO)[C@H](OC)C2)CC(=O)[C@H](C)/C=C(\C)[C@@H](O)[C@@H](OC)C(=O)[C@H](C)C[C@H](C)/C=C/C=C/C=C/1C` [RAD001], in data set [1], the “Effect on lupus symptoms” value is “ameliorate lupus symptoms”.
`Nc1nc2cc(-c3ccc4ncc(-c5ccncc5)n4c3)ccc2o1` [compound 6]: the IC50 in data set [2] was less than 10000 nM; in [3], less than 10000 nM; in [4], less than 100 nM; in data set [5], less than 100 nM; in data set [6] (read-out: T47D proliferation), less than 1000 nM; in data set [7] it was less than 1000 nM. Further, the IC50 in [8] (setting [14]) was less than 10000 nM.
As for `CS(=O)(=O)N1CCN(Cc2cc3nc(-c4ccc5oc(N)nc5c4)nc(N4CCOCC4)c3s2)CC1` [compound 129], the IC50 was less than 1000 nM in data set [2]; less than 1000 nM in data set [3]; less than 100 nM in data set [4]; less than 100 nM in data set [5]; less than 1000 nM in data set [7]; less than 1000 nM in data set [8] (setting [14]).
For the molecule `CN1CCC(N(C)C(=O)c2cnc3ccc(-c4ccc5oc(N)nc5c4)cn23)CC1` [compound 165], the IC50 in [2] was less than 10000 nM; in data set [5], less than 1000 nM; in [7], less than 10000 nM; in [8] (setting [14]), less than 1000 nM.
With `CCCOc1cc(N)ccc1C(=O)OCCN(CC)CC` [propoxycaine], in [9], the “Plasma stability of control compounds” value is recorded as “low plasma stability”.
For the molecule `Cn1c(=O)n(-c2ccc(C(C)(C)C#N)cc2)c2c3cc(-c4ccc5oc(N)nc5c4)ccc3ncc21` [compound 7], the IC50 in data set [2], in [3], in [4], in data set [5], in data set [7] and in data set [8] (setting [14]) was less than 100 nM throughout.
In the case of `CC(=O)Nc1nc2ccc(-c3ccc4nccc(-c5ccncc5)c4c3)cc2s1` [compound 2], the IC50 is less than 1000 nM in [4], less than 1000 nM in data set [5] and less than 10000 nM in [8] (setting [14]).
`Nc1nc2cc(-c3ccc4ncc(-c5ccncc5)n4n3)ccc2o1` [compound 10]: the IC50 in data set [2] is less than 1000 nM; in data set [3], less than 1000 nM; in data set [4], less than 100 nM; in data set [5] it was less than 100 nM; in data set [6] (read-out: T47D proliferation), less than 1000 nM; in data set [8] (setting [14]), less than 1000 nM.
With `O=C(NOC[C@H](O)CO)c1ccc(F)c(F)c1Nc1ccc(I)cc1F` [PD0325901, reference compound], the “Cell cycle arrest, single inhibitor versus DMSO control” value in [10] was “some increase in cell cycle arrest by comparison to DMSO control”.
With `Cc1ccc(NC(=O)c2ccc(CN3CCN(C)CC3)cc2)cc1Nc1nccc(-c2cccnc2)n1` [imatinib], in data set [11], the Effect on leukemogenesis entry is listed as “delay but not cure leukemogenesis”.
With `CC(=O)Nc1nc2ccc(-c3ccc4oc(N)nc4c3)cc2s1` [compound 231], the IC50 in data set [2] (in vitro) is less than 1000 nM; in data set [3] (in vitro), less than 10000 nM; in data set [4] (in vitro) it was less than 100 nM; in data set [5] (in vitro), less than 100 nM; in [6] (setting [15]), less than 1000 nM; in [7] (in vitro), less than 100 nM. In data set [8] (setting [16]), the IC50 is less than 10000 nM.
For the molecule `CCOC(=O)N1CCN(c2cnc3ccc(-c4ccc5oc(N)nc5c4)cc3n2)CC1` [compound 119], the IC50 in [2] was less than 10000 nM; in data set [3], less than 10000 nM; in [4], less than 10000 nM; in [5] it was less than 100 nM; in [6] (read-out: T47D proliferation), less than 10000 nM; in data set [7], less than 10000 nM.
As for `CN1CCN(C(=O)C2CN(c3cnc4ccc(-c5ccc6oc(N)nc6c5)cc4n3)C2)CC1` [compound 170], the IC50 was less than 1000 nM in data set [2]; less than 10000 nM in data set [3]; less than 10000 nM in data set [4]; less than 100 nM in data set [5]; less than 1000 nM in data set [6] (read-out: T47D proliferation); less than 1000 nM in data set [7].
Consider `CO[C@H]1C[C@@H]2CC[C@@H](C)[C@@](O)(O2)C(=O)C(=O)N2CCCC[C@H]2C(=O)O[C@H]([C@H](C)C[C@@H]2CC[C@@H](O)[C@H](OC)C2)CC(=O)[C@H](C)/C=C(\C)[C@@H](O)[C@@H](OC)C(=O)[C@H](C)C[C@H](C)/C=C/C=C/C=C/1C` [rapamycin], for which, in data set [12], the “anti-CD3 mediated Akt -S473 phosphorylation” value is recorded as “enhances Akt phosphorylation” and the “anti-CD3 mediated S6 phosphorylation” value is reported as “inhibits S6 phosphorylation”.
On to `CC(=O)Nc1cn2cc(-c3ccc4oc(N)nc4c3)ccc2n1` [compound 234], for which the IC50 in data set [2] (in vitro) is less than 1000 nM; in [3] (in vitro), less than 1000 nM; in [4] (in vitro), less than 100 nM; in data set [5] (in vitro), less than 100 nM; in data set [6] (setting [15]), less than 1000 nM; in data set [7] (in vitro) it was less than 100 nM. Also, in [8] (setting [16]), the IC50 was less than 100 nM.
In the case of `Nc1nc2ccc(-c3ccc4nccc(-c5ccncc5)c4c3)cc2o1` [compound 4], the IC50 in data set [2] was less than 100 nM; in [3], less than 1000 nM; in data set [4], less than 100 nM; in data set [5], less than 100 nM; in data set [7], less than 100 nM; in [8] (setting [14]), less than 100 nM.
In the case of `CC(C)[N+](C)(CCOC(=O)C1c2ccccc2Oc2ccccc21)C(C)C` [propantheline], in [9], the “Plasma stability of control compounds” value was “intermediate plasma stability”.
On to `O=C(O)CCCc1ccc(N(CCCl)CCCl)cc1` [chlorambucil, 4-[bis(2-chloroethyl)amino]benzenebutanoic acid], for which the “Chemical stability of reference compound” value in data set [13] is “largely hydrolyzed over the course of 24 hours”.
